Reference: the supplement of paper PMC10477900
Counter-ions that a name gives are not always drawn.

Columns and labels:
HCT116 [1] = conditions: 72 h
Protocol: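 HCT116 control and MTA1-KO (CRISPR) HCT116 cells were seeded in 384-well plates (800 cells/well), treated 16 h later with 237 metabolism-related anticancer drugs at five doses (10 uM, 2 uM, 400 nM, 80 nM, 16 nM) for 72 h, two replicates; viability by CCK8. Values are % inhibition of viability relative to untreated cells, plus fitted IC50.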

HCT116 [2] = experiment: viability inhibition vs untreated; higher = more cytotoxic; conditions: 72 h

Row | SMILES | IC50 (HCT116 [1]; genotype: MTA1-KO) [µM] | IC50 (HCT116 [1]; genotype: control) [µM] | viability inhibition (HCT116 [2]; genotype: MTA1-KO, 16 nM) [%] | viability inhibition (HCT116 [2]; genotype: MTA1-KO, 80 nM) [%] | viability inhibition (HCT116 [2]; genotype: MTA1-KO, 400 nM) [%] | viability inhibition (HCT116 [2]; genotype: MTA1-KO, 2000 nM) [%] | viability inhibition (HCT116 [2]; genotype: MTA1-KO, 10000 nM) [%] | viability inhibition (HCT116 [2]; genotype: control, 16 nM) [%] | viability inhibition (HCT116 [2]; genotype: control, 80 nM) [%] | viability inhibition (HCT116 [2]; genotype: control, 400 nM) [%] | viability inhibition (HCT116 [2]; genotype: control, 2000 nM) [%] | viability inhibition (HCT116 [2]; genotype: control, 10000 nM) [%]
1 | CC(O)=C(C#N)C(=O)Nc1ccc(C(F)(F)F)cc1 [Teriflunomide] | > 10 | > 10 | -20.1 | -19.6 | -22.5 | -31.4 | -28.2 | 12.8 | -1.7 | -4.62 | -5.29 | 10.1
2 | O=c1oc2cc(O)ccc2s1 [Tioxolone] | > 10 | > 10 | -23.8 | -21.4 | -19 | -28.2 | -26.1 | 0.941 | -1.9 | -1.53 | -13.6 | -6.09
3 | CC1(C)O[C@@H]2[C@@H](CO[C@@]3(COS(N)(=O)=O)OC(C)(C)O[C@@H]23)O1 [Topiramate] | > 10 | > 10 | -4.79 | -13.2 | -12.6 | -13 | -6.53 | 0.571 | -0.663 | 3.41 | 3.1 | 12.4
4 | CCC(=O)N1CCN(c2ccc(-n3c(=O)ccc4cnc5ccc(-c6cnc7ccccc7c6)cc5c43)cc2C(F)(F)F)CC1 [Torin 1] | 0.324 | 1.8 | 2.4 | 8.65 | 52 | 70.7 | 80.9 | -14.3 | -3.02 | 4.25 | 56 | 62.3
5 | Nc1ccc(-c2ccc3ncc4ccc(=O)n(-c5cccc(C(F)(F)F)c5)c4c3c2)cn1 [Torin 2] | 0.134 | 0.289 | -2.56 | 37.4 | 77.4 | 88.6 | 104 | -9.67 | 18.6 | 72.5 | 87 | 108
6 | CC(C)n1nc(-c2cc3cc(O)ccc3[nH]2)c2c(N)ncnc21 [Torkinib] | > 10 | 8.06 | -28.4 | -28.6 | -28.2 | -9.28 | 27.1 | -1.58 | -1.28 | -0.73 | 8.7 | 65.9
7 | N[C@@H]1C[C@H]1c1ccccc1 [Tranylcypromine (2-PCPA) hydrochloride] | > 10 | > 10 | -22.8 | -17.9 | -14.3 | -18.2 | -15.3 | -0.159 | -12.9 | -1.62 | -5.71 | -28
8 | CC1=C(/C=C/C(C)=C/C=C/C(C)=C/C(=O)O)C(C)(C)CCC1 [Tretinoin] | > 10 | > 10 | -24.6 | -24.4 | -23.5 | -20.8 | -24.5 | -4.55 | -1.65 | -12.1 | -9.98 | -3.87
